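Results reflect a 48-hour exposure of cells in 96-well plates to compound at five concentrations. Definition used: TGI = concentration required for complete inhibition of growth.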
Key:
Assay in all cases: NCI-60 cell line screen, 48 h
786-0 renal = tested on: 786-0 renal
A498 renal = tested on: A498 renal
A549 NSCLC = tested on: A549 NSCLC
ACHN renal = tested on: ACHN renal
BT-549 breast = tested on: BT-549 breast
CAKI-1 renal = tested on: CAKI-1 renal
CCRF-CEM leukemia = tested on: CCRF-CEM leukemia
COLO 205 colon = tested on: COLO 205 colon
DU-145 prostate = tested on: DU-145 prostate
EKVX NSCLC = tested on: EKVX NSCLC
HCC-2998 colon = tested on: HCC-2998 colon
HCT-116 colon = tested on: HCT-116 colon
HCT-15 colon = tested on: HCT-15 colon
HL-60(TB) leukemia = tested on: HL-60(TB) leukemia
HOP-62 NSCLC = tested on: HOP-62 NSCLC
HOP-92 NSCLC = tested on: HOP-92 NSCLC
HS 578T breast = tested on: HS 578T breast
HT29 colon = tested on: HT29 colon
IGROV1 ovarian = tested on: IGROV1 ovarian
K-562 leukemia = tested on: K-562 leukemia
KM12 colon = tested on: KM12 colon
LOX IMVI melanoma = tested on: LOX IMVI melanoma
M14 melanoma = tested on: M14 melanoma
MALME-3M melanoma = tested on: MALME-3M melanoma
MCF7 breast = tested on: MCF7 breast
MDA-MB-231 breast = tested on: MDA-MB-231 breast
MDA-MB-435 = tested on: MDA-MB-435
MDA-N = tested on: MDA-N
MOLT-4 leukemia = tested on: MOLT-4 leukemia
NCI-H226 lung = tested on: NCI-H226 lung
NCI-H23 lung = tested on: NCI-H23 lung
NCI-H460 lung = tested on: NCI-H460 lung
NCI-H522 lung = tested on: NCI-H522 lung
NCI/ADR-RES ovarian = tested on: NCI/ADR-RES ovarian
OVCAR-3 ovarian = tested on: OVCAR-3 ovarian
OVCAR-4 ovarian = tested on: OVCAR-4 ovarian
OVCAR-5 ovarian = tested on: OVCAR-5 ovarian
OVCAR-8 ovarian = tested on: OVCAR-8 ovarian
PC-3 prostate = tested on: PC-3 prostate
RPMI-8226 leukemia = tested on: RPMI-8226 leukemia
RXF 393 renal = tested on: RXF 393 renal
SF-268 CNS = tested on: SF-268 CNS
SF-295 CNS = tested on: SF-295 CNS
SF-539 CNS = tested on: SF-539 CNS
SK-MEL-2 melanoma = tested on: SK-MEL-2 melanoma
SK-MEL-28 melanoma = tested on: SK-MEL-28 melanoma
SK-MEL-5 melanoma = tested on: SK-MEL-5 melanoma
SK-OV-3 ovarian = tested on: SK-OV-3 ovarian
SN12C renal = tested on: SN12C renal
SNB-19 CNS = tested on: SNB-19 CNS
SNB-75 CNS = tested on: SNB-75 CNS
SR leukemia = tested on: SR leukemia
SW-620 colon = tested on: SW-620 colon
T-47D breast = tested on: T-47D breast
TK-10 renal = tested on: TK-10 renal
U251 CNS = tested on: U251 CNS
UACC-257 melanoma = tested on: UACC-257 melanoma
UACC-62 melanoma = tested on: UACC-62 melanoma
UO-31 renal = tested on: UO-31 renal

CCNC(=S)N/N=C(/C)c1cccc(/C(C)=N\NC(=S)NCC)n1
TGI (786-0 renal): > 100 µM | TGI (A498 renal): 56.7 µM | TGI (A549 NSCLC): > 82.9 µM | TGI (ACHN renal): > 66.9 µM | TGI (BT-549 breast): > 100 µM | TGI (CAKI-1 renal): 74.1 µM | TGI (CCRF-CEM leukemia): > 19.1 µM | TGI (COLO 205 colon): > 23.5 µM | TGI (DU-145 prostate): > 36.6 µM | TGI (EKVX NSCLC): > 52.7 µM | TGI (HCC-2998 colon): > 96.7 µM | TGI (HCT-116 colon): 13.1 µM | TGI (HCT-15 colon): > 57 µM | TGI (HL-60(TB) leukemia): 7.9 µM | TGI (HOP-62 NSCLC): > 100 µM | TGI (HOP-92 NSCLC): 24.6 µM | TGI (HS 578T breast): > 96.6 µM | TGI (HT29 colon): 46.2 µM | TGI (IGROV1 ovarian): > 64 µM | TGI (K-562 leukemia): 26.3 µM | TGI (KM12 colon): > 51.1 µM | TGI (LOX IMVI melanoma): 35.8 µM | TGI (M14 melanoma): 19.9 µM | TGI (MALME-3M melanoma): > 44.6 µM | TGI (MCF7 breast): 31.2 µM | TGI (MDA-MB-231 breast): > 84.2 µM | TGI (MDA-MB-435): > 100 µM | TGI (MDA-N): > 45.8 µM | TGI (MOLT-4 leukemia): 14.7 µM | TGI (NCI-H226 lung): 7.39 µM | TGI (NCI-H23 lung): 73.7 µM | TGI (NCI-H460 lung): 12.5 µM | TGI (NCI-H522 lung): 24.5 µM | TGI (NCI/ADR-RES ovarian): 21.1 µM | TGI (OVCAR-3 ovarian): > 94 µM | TGI (OVCAR-4 ovarian): > 100 µM | TGI (OVCAR-5 ovarian): > 72.8 µM | TGI (OVCAR-8 ovarian): 16.9 µM | TGI (PC-3 prostate): > 100 µM | TGI (RPMI-8226 leukemia): 25.7 µM | TGI (RXF 393 renal): 33.5 µM | TGI (SF-268 CNS): > 100 µM | TGI (SF-295 CNS): > 38.8 µM | TGI (SF-539 CNS): 23.7 µM | TGI (SK-MEL-2 melanoma): > 93.1 µM | TGI (SK-MEL-28 melanoma): > 100 µM | TGI (SK-MEL-5 melanoma): 5.52 µM | TGI (SK-OV-3 ovarian): 73.8 µM | TGI (SN12C renal): > 65.6 µM | TGI (SNB-19 CNS): > 100 µM | TGI (SNB-75 CNS): > 73.2 µM | TGI (SR leukemia): > 15.7 µM | TGI (SW-620 colon): > 100 µM | TGI (T-47D breast): > 45.4 µM | TGI (TK-10 renal): 19.1 µM | TGI (U251 CNS): 58 µM | TGI (UACC-257 melanoma): 31.6 µM | TGI (UACC-62 melanoma): 27.2 µM | TGI (UO-31 renal): > 63.6 µM

Cc1cc2nc(N3C(=O)/C(=C/Cc4ccco4)N=C3c3ccccc3)sc2cc1C
TGI (786-0 renal): 96.6 µM | TGI (A549 NSCLC): > 100 µM | TGI (ACHN renal): 96.3 µM | TGI (BT-549 breast): > 100 µM | TGI (CAKI-1 renal): > 100 µM | TGI (CCRF-CEM leukemia): 28.1 µM | TGI (COLO 205 colon): > 100 µM | TGI (DU-145 prostate): > 100 µM | TGI (EKVX NSCLC): > 100 µM | TGI (HCC-2998 colon): 55.7 µM | TGI (HCT-116 colon): 54 µM | TGI (HCT-15 colon): > 100 µM | TGI (HL-60(TB) leukemia): 46.1 µM | TGI (HOP-62 NSCLC): > 100 µM | TGI (HOP-92 NSCLC): 60.5 µM | TGI (HS 578T breast): > 100 µM | TGI (HT29 colon): 76.5 µM | TGI (IGROV1 ovarian): > 100 µM | TGI (K-562 leukemia): > 100 µM | TGI (KM12 colon): > 100 µM | TGI (LOX IMVI melanoma): > 100 µM | TGI (M14 melanoma): > 100 µM | TGI (MCF7 breast): 40.4 µM | TGI (MDA-MB-231 breast): > 100 µM | TGI (MDA-MB-435): 50.5 µM | TGI (MDA-N): 30 µM | TGI (MOLT-4 leukemia): > 100 µM | TGI (NCI-H460 lung): > 100 µM | TGI (NCI/ADR-RES ovarian): > 100 µM | TGI (OVCAR-3 ovarian): > 100 µM | TGI (OVCAR-4 ovarian): > 100 µM | TGI (OVCAR-5 ovarian): > 100 µM | TGI (OVCAR-8 ovarian): > 100 µM | TGI (PC-3 prostate): 54 µM | TGI (RPMI-8226 leukemia): > 100 µM | TGI (RXF 393 renal): 59.1 µM | TGI (SF-268 CNS): > 100 µM | TGI (SF-295 CNS): > 100 µM | TGI (SF-539 CNS): > 100 µM | TGI (SK-MEL-2 melanoma): > 100 µM | TGI (SK-MEL-28 melanoma): > 100 µM | TGI (SK-MEL-5 melanoma): > 100 µM | TGI (SK-OV-3 ovarian): > 100 µM | TGI (SN12C renal): 87.9 µM | TGI (SNB-19 CNS): > 100 µM | TGI (SNB-75 CNS): 59.9 µM | TGI (SR leukemia): > 100 µM | TGI (SW-620 colon): > 100 µM | TGI (T-47D breast): > 100 µM | TGI (TK-10 renal): > 100 µM | TGI (U251 CNS): > 100 µM | TGI (UACC-257 melanoma): > 100 µM | TGI (UACC-62 melanoma): > 100 µM | TGI (UO-31 renal): > 100 µM

OCCN1CCN(c2nc(N3CCCC3)c3nc(Cl)c(NCc4ccccc4)nc3n2)CC1
TGI (786-0 renal): 4.23 µM | TGI (A498 renal): 25 µM | TGI (A549 NSCLC): 21.4 µM | TGI (ACHN renal): 20.7 µM | TGI (BT-549 breast): 20.7 µM | TGI (CAKI-1 renal): 23.7 µM | TGI (CCRF-CEM leukemia): 11.7 µM | TGI (COLO 205 colon): 6.73 µM | TGI (DU-145 prostate): 23.6 µM | TGI (EKVX NSCLC): 25 µM | TGI (HCC-2998 colon): 3.56 µM | TGI (HCT-116 colon): 17.6 µM | TGI (HCT-15 colon): 7.91 µM | TGI (HL-60(TB) leukemia): 11.8 µM | TGI (HOP-62 NSCLC): 8.98 µM | TGI (HOP-92 NSCLC): 16.8 µM | TGI (HS 578T breast): 31 µM | TGI (HT29 colon): 10.6 µM | TGI (IGROV1 ovarian): 23.1 µM | TGI (K-562 leukemia): 22 µM | TGI (KM12 colon): 15.8 µM | TGI (LOX IMVI melanoma): 10.6 µM | TGI (M14 melanoma): 7.24 µM | TGI (MALME-3M melanoma): 11.7 µM | TGI (MCF7 breast): 17.2 µM | TGI (MDA-MB-231 breast): 25 µM | TGI (MDA-MB-435): 10.7 µM | TGI (MDA-N): 8.47 µM | TGI (MOLT-4 leukemia): 15.3 µM | TGI (NCI-H226 lung): 37.8 µM | TGI (NCI-H23 lung): 29.4 µM | TGI (NCI-H460 lung): 18.1 µM | TGI (NCI-H522 lung): 18.7 µM | TGI (NCI/ADR-RES ovarian): 26.7 µM | TGI (OVCAR-3 ovarian): 23.5 µM | TGI (OVCAR-4 ovarian): 25.4 µM | TGI (OVCAR-5 ovarian): 26.6 µM | TGI (OVCAR-8 ovarian): 23.5 µM | TGI (PC-3 prostate): 22.8 µM | TGI (RPMI-8226 leukemia): 8.35 µM | TGI (RXF 393 renal): 3.68 µM | TGI (SF-268 CNS): 23.2 µM | TGI (SF-295 CNS): 13.4 µM | TGI (SF-539 CNS): 13.6 µM | TGI (SK-MEL-2 melanoma): 16.8 µM | TGI (SK-MEL-28 melanoma): 9.08 µM | TGI (SK-MEL-5 melanoma): 7.82 µM | TGI (SK-OV-3 ovarian): 27.5 µM | TGI (SN12C renal): 24.2 µM | TGI (SNB-19 CNS): 21.3 µM | TGI (SNB-75 CNS): 8.67 µM | TGI (SR leukemia): 15.2 µM | TGI (SW-620 colon): 17.5 µM | TGI (T-47D breast): 17.4 µM | TGI (TK-10 renal): 19.2 µM | TGI (U251 CNS): 18.2 µM | TGI (UACC-257 melanoma): 9.79 µM | TGI (UACC-62 melanoma): 9.26 µM | TGI (UO-31 renal): 11.5 µM

Source: PubChem BioAssay (NCI)
